For assay [1], the target named is T1, Peroxisome proliferator-activated receptor alpha (Homo sapiens) (UniProt Q07869).
T1 sequence (whole entry): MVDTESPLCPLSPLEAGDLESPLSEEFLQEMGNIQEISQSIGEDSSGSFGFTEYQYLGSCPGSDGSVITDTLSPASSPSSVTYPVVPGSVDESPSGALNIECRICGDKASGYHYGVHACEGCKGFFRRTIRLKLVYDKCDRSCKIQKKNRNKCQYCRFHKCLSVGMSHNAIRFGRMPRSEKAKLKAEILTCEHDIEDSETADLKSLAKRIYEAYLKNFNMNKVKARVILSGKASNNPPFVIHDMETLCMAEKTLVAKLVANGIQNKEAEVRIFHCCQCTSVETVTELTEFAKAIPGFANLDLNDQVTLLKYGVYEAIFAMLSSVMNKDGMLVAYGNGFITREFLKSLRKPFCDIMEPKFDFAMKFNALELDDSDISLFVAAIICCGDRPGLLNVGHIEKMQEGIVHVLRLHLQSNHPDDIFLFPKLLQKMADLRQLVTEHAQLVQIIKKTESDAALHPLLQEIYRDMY
Description: Transactivation of PPARalpha (unknown origin) expressed in HEK293A cells at 150 uM after 16 to 18 hrs by luciferase reporter assay relative to control. The assay is classed as cell-based. The settings on record: HEK293-A. In general terms: A reporter such as luciferase makes a cellular process visible.

For assay [2], the target named is T2, Peroxisome proliferator-activated receptor gamma (Homo sapiens) (UniProt P37231).
T2 sequence (whole entry): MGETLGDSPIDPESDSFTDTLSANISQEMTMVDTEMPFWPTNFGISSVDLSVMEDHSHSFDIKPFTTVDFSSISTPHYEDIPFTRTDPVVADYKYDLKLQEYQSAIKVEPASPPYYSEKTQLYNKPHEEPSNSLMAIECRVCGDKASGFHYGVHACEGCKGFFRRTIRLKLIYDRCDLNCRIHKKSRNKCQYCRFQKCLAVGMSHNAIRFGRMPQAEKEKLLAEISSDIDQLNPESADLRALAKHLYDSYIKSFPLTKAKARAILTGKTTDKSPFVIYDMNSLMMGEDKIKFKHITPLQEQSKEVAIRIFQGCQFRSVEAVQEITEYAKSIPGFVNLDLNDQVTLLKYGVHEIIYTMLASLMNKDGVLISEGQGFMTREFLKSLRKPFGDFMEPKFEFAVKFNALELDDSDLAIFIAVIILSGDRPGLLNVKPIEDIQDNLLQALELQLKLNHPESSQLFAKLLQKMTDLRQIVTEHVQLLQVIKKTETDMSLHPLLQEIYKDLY
Description: Antagonist activity at PPARgamma (unknown origin) expressed in HEK293A cells after 16 to 18 hrs by luciferase reporter assay. It is filed as cell-based. The settings on record: HEK293-A.

The target of assay [3] is T3, Peroxisome proliferator-activated receptor alpha (Homo sapiens, UniProt Q07869).
T3 sequence (Q07869 whole entry): T1 sequence (whole entry)
Description: Antagonist activity at PPARalpha (unknown origin) expressed in HEK293A cells assessed as inhibition of GW7647-induced transactivation after 16 to 18 hrs by luciferase reporter assay. The assay is classed as cell-based, HEK293-A.

For assay [4], the target named is T4, Peroxisome proliferator-activated receptor delta (Homo sapiens) (UniProt Q03181).
T4 sequence (whole entry): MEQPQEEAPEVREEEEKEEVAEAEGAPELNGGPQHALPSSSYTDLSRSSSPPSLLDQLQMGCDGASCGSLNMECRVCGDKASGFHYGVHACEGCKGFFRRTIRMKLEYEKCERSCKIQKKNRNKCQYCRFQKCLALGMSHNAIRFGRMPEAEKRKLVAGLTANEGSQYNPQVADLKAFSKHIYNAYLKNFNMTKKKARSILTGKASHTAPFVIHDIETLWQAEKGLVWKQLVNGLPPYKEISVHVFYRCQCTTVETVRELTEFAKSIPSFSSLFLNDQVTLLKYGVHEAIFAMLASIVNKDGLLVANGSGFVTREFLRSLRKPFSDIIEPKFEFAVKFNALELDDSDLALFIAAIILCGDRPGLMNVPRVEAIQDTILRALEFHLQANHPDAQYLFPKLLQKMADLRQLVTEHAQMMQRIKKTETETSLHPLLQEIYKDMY
Description: Transactivation of PPARdelta (unknown origin) expressed in HEK293A cells after 16 to 18 hrs by luciferase reporter assay. It is filed as cell-based. The settings on record: HEK293-A.

Assay [5] addresses T1, Peroxisome proliferator-activated receptor alpha (Homo sapiens). Description: Transactivation of PPARalpha in human HepG2 cells assessed as increase in CPT1 mRNA expression at 150 uM after 48 hrs by RT-PCR method. It is filed as cell-based.
For assay [6] the target is unchanged. Description: Antagonist activity at PPARalpha in human HepG2 cells assessed as inhibition of GW7647-induced CPT1 mRNA expression at 150 uM after 48 hrs by RT-PCR method. The assay is classed as cell-based.
The target in assay [7] is T2, Peroxisome proliferator-activated receptor gamma (Homo sapiens). Description: Transactivation of PPARgamma (unknown origin) expressed in HEK293A cells at IC50 after 16 to 18 hrs by luciferase reporter assay. The assay is classed as cell-based. The note with it: HEK293-A.

SMILES strings stand for the structures. Active and inactive are the calls of the source. The calls are words filed in the database; no cut-off is given here.

For the compound `CCCC(Sc1nc2cc(Cl)ccc2s1)C(=O)NS(=O)(=O)c1ccc(Cl)cc1` (stereo not given), in assay [1], the fold change (FC) was 0.04. Also, in assay [2], the inhibition result was “Active”. In addition, in assay [3], the half-maximal inhibitory concentration (IC50) (commonly the concentration that inhibits the measured activity by half) is 6.86 µM. Moreover, the outcome in assay [4] was inactive.

In the case of `CCCC(Sc1nc2cc(Cl)ccc2s1)C(=O)NS(=O)(=O)c1ccc(NC(=O)c2ccccc2)cc1` (stereo not given), the fold change (FC) in assay [1] amounted to 0.05. In assay [2], the inhibition result was “Active”. The IC50 in assay [3] is 4.5 µM. Moreover, in assay [4], the outcome was inactive.

On to `CCCC(Sc1nc2cc(Cl)ccc2s1)C(=O)NS(=O)(=O)c1ccc(OC)cc1` (stereo not given), for which the fold change (FC) in assay [1] was < 0.01. Also, the inhibition result in assay [2] and in assay [6] was “Active” in each case. The IC50 in assay [3] was determined as 0.68 µM. The result in assay [4] and in assay [5] was inactive.

For `CC(C)(Oc1ccc(C(=O)c2ccc(Cl)cc2)cc1)C(=O)NS(=O)(=O)c1ccccc1`, the fold change (FC) in assay [1] worked out at 0.08. The IC50 in assay [3] turned out to be 7.65 µM.

As to `CCCC(Sc1nc2cc(Cl)ccc2s1)C(=O)NS(=O)(=O)c1ccc([N+](=O)[O-])cc1` (stereo not given), the fold change (FC) in assay [1] worked out at 0.03. Besides, the inhibition result in assay [2] and in assay [6] was “Active” each time. In addition, the IC50 in assay [3] was determined as 0.85 µM. Moreover, the result in assay [4] and in assay [5] was inactive.

As to `CC(C)(Oc1ccc(Cl)cc1)C(=O)NS(=O)(=O)c1ccccc1`, the fold change (FC) in assay [1] amounted to 0.47. The IC50 in assay [3] worked out at 0.65 µM.

Take `Cc1ccc(C)c(OCCCC(C)(C)C(=O)NS(=O)(=O)c2ccccc2)c1`: the fold change (FC) in assay [1] was determined as 0.05. In addition, the IC50 in assay [3] was determined as 8.8 µM.

For the compound `CC(C)(Oc1ccc(CCNC(=O)c2ccc(Cl)cc2)cc1)C(=O)NS(=O)(=O)c1ccccc1`, the fold change (FC) in assay [1] stood at 0.28. Further, in assay [3], the IC50 amounted to 0.8 µM.

Turning to `O=C(NS(=O)(=O)c1ccc([N+](=O)[O-])cc1)C(Sc1nc2cc(Cl)ccc2s1)c1ccccc1` (stereo not given), the fold change (FC) in assay [1] amounted to 0.22. The inhibition entry in assay [2] and in assay [6] was “Active” each time. Further, in assay [3], the concentration for half-maximal inhibition (IC50) was found to be 0.82 µM. The result in assay [4] and in assay [5] was inactive.

`O=C(NS(=O)(=O)c1ccc(Cl)cc1)C(Sc1nc2cc(Cl)ccc2s1)c1ccccc1` (stereo not given): the fold change (FC) in assay [1] came out at 0.9. Moreover, the outcome in assay [7] was Active. For the same compound, the outcome in assay [4] was inactive.

For `CCCC(Sc1nc2cc(Cl)ccc2s1)C(=O)NS(=O)(=O)c1ccc(C)cc1` (stereo not given), the fold change (FC) in assay [1] is < 0.01. The inhibition result in assay [2] is “Active”. The 50% inhibitory concentration (IC50) in assay [3] is 4.6 µM. In addition, the outcome in assay [4] was inactive.

Take `CCCC(Sc1nc2cc(Cl)ccc2s1)C(=O)NS(=O)(=O)c1ccc(NC(C)=O)cc1` (stereo not given): the fold change (FC) in assay [1] turned out to be 0.2. In assay [2], the inhibition result was “Active”. The 50% inhibitory concentration (IC50) in assay [3] was 108 µM. Besides, the result in assay [4] was inactive.

The values are drawn from ChEMBL document CHEMBL3779850, “Synthesis, in vitro evaluation, and molecular modeling investigation of benzenesulfonimide peroxisome proliferator-activated receptors α antagonists” (Eur J Med Chem, 2016).
